SMILES strings stand for the structures.

For the assay, the target named is T1, CDK2 (Homo sapiens, UniProt P24941).
T1 construct: endogenous in cells; host or cells: OVCAR3 cells
In words: Phospho-RB measurement in OVCAR3 cells (HTRF phospho-RB cellular kit). It counts as cell-based. The settings on record: inhibition of RB phosphorylation at S807/811 (HTRF, TR-FRET ratio 665/620), 24 h compound treatment, 0.3 to 10,000 nM. The essentials:
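IC50 came from a four-parameter logistic fit of the DMSO-normalized TR-FRET ratio (665/620 nm). That ratio reflects RB phosphorylation at S807/811, read with an HTRF antibody pair 4 h after adding lysate at room temperature.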
Background: TR-FRET usually uses a lanthanide donor and a delayed reading to cut background.

The IC50 is the concentration that inhibits the measured activity by half. As for `CC(C)(C)c1nc(-c2cccc(NS(=O)(=O)N3CCc4c(CC#N)cccc43)c2F)c(-c2ccnc(NC3CC4(C3)CS(=O)(=O)C4)n2)s1` [Example 238, N-(3-(2-(tert-butyl)-5-(2-((2,2-dioxido-2-thiaspiro[3.3]heptan-6-yl)amino)-pyrimidin-4-yl)thiazol-4-yl)-2-fluoro-phenyl)-4-(cyanomethyl) indoline-1-sulfonamide], the half-maximal inhibitory concentration (IC50) stood at 295 nM.
As to `O=S1(=O)CC2(CC(Nc3nccc(-c4sc(N5C6CCC5COC6)nc4-c4cccc(NS(=O)(=O)N5Cc6ccncc6C5)c4F)n3)C2)C1` [Example 212, N-(3-(2-(3-oxa-8-azabicyclo [3.2.1]octan-8-yl)-5-(2-((2,2-dioxido-2-thiaspiro-[3.3]heptan-6-yl)amino)pyrimidin-4-yl)thiazol-4-yl)-2-fluorophenyl)-1,3-dihydro-2H-pyrrolo [3,4-c]-pyridine-2-sulfonamide], the IC50 was determined as 662 nM.
For the molecule `CNS(=O)(=O)Nc1cccc(-c2nc(C(C)(C)C)sc2-c2ccnc(NC3CCN(S(=O)(=O)N4CCNCC4)CC3)n2)c1F` [Example 146, N-(3-(2-(tert-butyl)-5-(2-((1-(piperazin-1-ylsulfonyl)piperidin-4-yl)amino)-pyrimidin-4-yl)thiazol-4-yl)-2-fluoro-phenyl)-methylamine-sulfonamide], the IC50 came out at 3010 nM.
Take `CC1(c2nc(-c3cccc(NS(=O)(=O)N4Cc5ccc(CO)cc5C4)c3F)c(-c3ccnc(N[C@H]4[C@@H]5CS(=O)(=O)C[C@@H]54)n3)s2)CCOCC1` [Example 12, N-(3-(5-(2-(((1R, 5S,6r)-3,3-dioxido-3-thiabicyclo[3.1.0]hexan-6-yl)amino)-pyrimidin-4-yl)-2-(4-methyltetrahydro-2H-pyran-4-yl)thiazol-4-yl)-2-fluorophenyl)-5-(hydroxymethyl)-isoindoline-2-sulfonamide]: the IC50 is 47.8 nM.
In the case of `O=S1(=O)CC2(CC(Nc3nccc(-c4sc(N5C6CCC5CN(CC(F)(F)F)C6)nc4-c4cccc(NS(=O)(=O)N5CCc6ccc(C(F)(F)F)cc65)c4F)n3)C2)C1` [Example 39, N-(3-(5-(2-((2,2-dioxido-2-thiaspiro-[3.3]-heptan-6-yl)amino)pyrimidin-4-yl)-2-(3-(2,2,2-trifluoroethyl)-3,8-diazabicyclo[3.2.1]-octan-8-yl)thiazol-4-yl)-2-fluorophenyl)-6-(trifluoromethyl)-indoline-1-sulfonamide], the IC50 turned out to be 752 nM.
For the molecule `O=S1(=O)CC2(CC(Nc3nccc(-c4sc(C5(C(F)(F)F)CC5)nc4-c4cccc(NS(=O)(=O)N5CCc6ccc(Cl)cc65)c4F)n3)C2)C1` [Example 287, 6-chloro-N-(3-(5-(2-((2,2-dioxido-2-thiaspiro[3.3]heptan-6-yl)amino)-pyrimidin-4-yl)-2-(1-(trifluoromethyl)-cyclopropyl)thiazol-4-yl)-2-fluoro-phenyl)indoline-1-sulfonamide], the half-inhibitory concentration (IC50) came to 347 nM.
For `CN(C)Cc1ccc2c(c1)CCN2S(=O)(=O)Nc1cccc(-c2nc(C(C)(C)C)sc2-c2ccnc(NC3CCN(S(C)(=O)=O)CC3)n2)c1F` [Example 189, N-(3-(2-(tert-butyl)-5-(2-((1-(methylsulfonyl)-piperidin-4-yl)amino)-pyrimidin-4-yl)thiazol-4-yl)-2-fluoro-phenyl)-5-((dimethylamino)-methyl)-indoline-1-sulfonamide], the half-inhibitory concentration (IC50) was 1550 nM.
As for `CS(=O)(=O)[C@H]1CC[C@H](Nc2nccc(-c3sc(C4(C(F)(F)F)CC4)nc3-c3cccc(NS(=O)(=O)N4CCc5ccc(Cl)cc54)c3F)n2)CC1` [Example 283, 6-chloro-N-(2-fluoro-3-(5-(2-(((1r,4r)-4-(methylsulfonyl)cyclohexyl)amino)pyrimidin-4-yl)-2-(1-(trifluoromethyl)-cyclopropyl)thiazol-4-yl)phenyl)-indoline-1-sulfonamide], the IC50 was 200 nM.
`O=S1(=O)CC2(CC(Nc3nccc(-c4sc(N5C6CCC5CN(C5CC(F)(F)C5)C6)nc4-c4cccc(NS(=O)(=O)N5Cc6cccc(C(F)F)c6C5)c4F)n3)C2)C1` [Example 52, N-(3-(2-(3-(3,3-difluorocyclobutyl)-3,8-diazabicyclo [3.2.1]octan-8-yl)-5-(2-((2,2-dioxido-2-thiaspiro[3.3]heptan-6-yl)amino)-pyrimidin-4-yl)thiazol-4-yl)-2-fluorophenyl)-4-(difluoromethyl)-isoindoline-2-sulfonamide]: the IC50 is 160 nM.
`CC(C)(C)c1nc(-c2cccc(NS(=O)(=O)N3CCc4ccccc4C3)c2F)c(-c2ccnc(NC3CCN(S(=O)(=O)N4CCNCC4)CC3)n2)s1` [Example 114, N-(3-(2-(tert-butyl)-5-(2-((1-(piperazin-1-ylsulfonyl)piperidin-4-yl)amino)-pyrimidin-4-yl)thiazol-4-yl)-2-fluoro-phenyl)-3,4-dihydro-isoquinoline-2(1H)-sulfonamide]: the IC50 was 276 nM.
In the case of `CC(C)(C)c1nc(-c2cccc(NS(=O)(=O)N3CCc4ccccc43)c2F)c(-c2ccnc(NC3CCN(S(C)(=O)=O)CC3)n2)s1` [Example 73, N-(3-(2-(tert-butyl)-5-(2-((1-(methylsulfonyl)-piperidin-4-yl)amino)-pyrimidin-4-yl)thiazol-4-yl)-2-fluoro-phenyl)indoline-1-sulfonamide] it was 58 nM; in that of `O=S1(=O)C[C@@H]2[C@H](C1)[C@H]2Nc1nccc(-c2sc(C34CC(C3)C4)nc2-c2cccc(NS(=O)(=O)N3CCc4c(CO)cccc43)c2F)n1` [Example 13, N-(3-(2-(bicyclo [1.1.1]pentan-1-yl)-5-(2-(((1R,5S,6r)-3,3-dioxido-3-thia-bicyclo[3.1.0]-hexan-6-yl)amino)-pyrimidin-4-yl)thiazol-4-yl)-2-fluorophenyl)-4-(hydroxymethyl)-indoline-1-sulfonamide], 57.7 nM.
As to `CS(=O)(=O)[C@H]1CC[C@H](Nc2nccc(-c3sc(C45CC(C(F)(F)F)(C4)C5)nc3-c3cccc(NS(=O)(=O)N4CCc5ccc(C(F)(F)F)cc54)c3F)n2)CC1` [Example 55, N-(2-fluoro-3-(5-(2-(((1r, 4r)-4-(methylsulfonyl)cyclohexyl)amino)pyrimidin-4-yl)-2-(3-(trifluoromethyl)bicyclo-[1.1.1]-pentan-1-yl)thiazol-4-yl)phenyl)-6-(trifluoromethyl) indoline-1-sulfonamide], the half-inhibitory concentration (IC50) stood at 525 nM.
As to `O=S1(=O)CC2(CC(Nc3nccc(-c4sc(C56CC(C5)C6)nc4-c4cccc(NS(=O)(=O)N5C6CCC5c5ccccc56)c4F)n3)C2)C1` [Example 268, N-(3-(2-(bicyclo [1.1.1]pentan-1-yl)-5-(2-((2,2-dioxido-2-thiaspiro[3.3]heptan-6-yl)amino)-pyrimidin-4-yl)thiazol-4-yl)-2-fluorophenyl)-1,2,3,4-tetrahydro-1,4-epiminonaphthalene-9-sulfonamide], the IC50 was determined as 8310 nM.
Regarding `C[C@H]1Cc2ccccc2N1S(=O)(=O)Nc1cccc(-c2nc(C(C)(C)C)sc2-c2ccnc(NC3CCN(S(=O)(=O)N4CCNCC4)CC3)n2)c1F` [Example 147, (S)-N-(3-(2-(tert-butyl)-5-(2-((1-(piperazin-1-ylsulfonyl)piperidin-4-yl)amino)pyrimidin-4-yl)thiazol-4-yl)-2-fluorophenyl)-2-methylindoline-1-sulfonamide], the IC50 is 458 nM.

Source of the values: patent US20260274833A1 (NiKang Therapeutics, Inc., priority 2022, published 2026).
